Consider 5 compounds from US6495542B1, “Benzamide derivatives as vasopressin antagonists” (Fujisawa Pharmaceutical Co., Ltd., priority 1998, dated 2002).

Structures can show the parent of a compound that is named as a salt.

Assay [1] concerns the target T1, human V2 receptor (Homo sapiens, UniProt P30518).
T1 construct: expressed in transfected cells
In words: Vasopressin 2 (V2) receptor binding, 3H-vasopressin competition on membranes of CHO cells expressing human V2 receptor. The note with it: human V2 receptor in CHO cells; competition with 0.5 nm 3H-vasopressin, 2 hours at 22° C. The source says: Vasopressin 2 (V2) Receptor Binding
For binding assays, a receptor cDNA was permanently expressed in Chinese hamster ovary (CHO) cells. A vector directing expression of the cDNA of a human V2 receptor was transfected into the CHO cells, and the clonal cell lines expressing the human V2 receptor were established essentially as described previously (Nakajima, Y., et. al. J. Biol. chem., 267, 2437, 1992).
DNA-transfected cells were harvested and homogenized in ice-cold […] Tris-HCl (pH 7.4), 10 mM MgCl2, 1 mM EDTA and 5 μg/ml p-amidinophenylmethylsulfonyl fluoride (A-PMSF). The homogenate was centrifuged at 500×g for 10 minutes. The supernatant was centrifuged at […] for 1 hour. The final pellet was suspended in 25 mM Tris-HCl buffer (pH 7.4, containing 10 mM MgCl2, 1 mM EDTA and 5 μg/ml A-PMSF), and stored in small aliquots at −80° C.
Competition assays were conducted at equilibrium (2 hours at 22° C.) by using 0.5 nm ^3H-vasopressin (40-87 Ci/mmol; New England Nuclear) in 100 mM Tris-HCl buffer (pH 7.4, containing 5 mM MgCl2, 5 μg/ml A-PMSF, 4 μg/ml leupeptin, 40 μg/ml bacitracin, 20 μg/ml chymostatin and 0.1% bovine serum albimin). Nonspecific binding was determined by using 1 μM vasopressin. After incubation, the reaction mixture was immediately filtered through Whatman glass filter (GF/C). The filter was washed twice with the same buffer. The radioactivity was counted by using a liquid scintillation counter. Competition activity of the test compound was represented by IC50 values.

Assay [2] has as its target Vasopressin 1 (VI) Receptor (Rattus norvegicus, UniProt P30560). The experiment in a line: Vasopressin 1 (V1) receptor binding, rat. The note with it: Test 1 V1 receptor binding. As for the experimental part: (§1) Vasopressin 1 (VI) Receptor Binding
(§2) Competition assays were conducted at equilibrium (15 minutes at 30° C.) by using 1.5 nM ^3H-vasopressin (40-87 Ci/mmol; New England Nuclear) in 100 mM Tris-HCl buffer (pH 7.4). Nonspecific binding was determined by using 1 μM vasopressin. After incubation, the reaction was terminated by adding 5 ml of ice-cold 100 mM Tris-HCl buffer (pH 7.4), and then filtered immediately through Whatman glass filter (GF/C). The filter was washed twice with the same buffer. The glass filter was placed in a liquid scintillation cocktail, and the radioactivity thereof was counted by using a liquid scintillation counter. Competition activity of the test compound was represented by IC50 values.

Assay [3] has as its target T2, Vasopressin 1 (VI) Receptor (Homo sapiens, UniProt P37288).
T2 construct: Platelet-rich plasma (PRP) was prepared by centrifugation of whole blood; from tissue; host or cells: platelet membranes from blood of a normal subject
In words: Vasopressin 1 (V1) receptor binding, 3H-vasopressin competition on human platelet membranes. Conditions: competition with 1.5 nM 3H-vasopressin, 15 minutes at 30° C. As to the method:
as §1
Blood was obtained from normal subject by venipuncture. Platelet-rich plasma (PRP) was prepared by centrifugation of whole blood at 200×g for 10 minutes. PRP was centrifuged at 45,000×g for 30 minutes. The remaining pellet was resuspended in 10 volume of ice-cold 100 mM Tris-HCl buffer (pH 7.4, containing 5 mM MgCl2, 0.1% bovine serum albumin and 1 mM EDTA), and again centrifuged at 45,000×g for 30 minutes. The final pellet was resuspended in 100 mM Tris-HCl buffer. The resulting suspension was used immediately for the binding assay.
as §2

T2 sequence (P37288 whole entry): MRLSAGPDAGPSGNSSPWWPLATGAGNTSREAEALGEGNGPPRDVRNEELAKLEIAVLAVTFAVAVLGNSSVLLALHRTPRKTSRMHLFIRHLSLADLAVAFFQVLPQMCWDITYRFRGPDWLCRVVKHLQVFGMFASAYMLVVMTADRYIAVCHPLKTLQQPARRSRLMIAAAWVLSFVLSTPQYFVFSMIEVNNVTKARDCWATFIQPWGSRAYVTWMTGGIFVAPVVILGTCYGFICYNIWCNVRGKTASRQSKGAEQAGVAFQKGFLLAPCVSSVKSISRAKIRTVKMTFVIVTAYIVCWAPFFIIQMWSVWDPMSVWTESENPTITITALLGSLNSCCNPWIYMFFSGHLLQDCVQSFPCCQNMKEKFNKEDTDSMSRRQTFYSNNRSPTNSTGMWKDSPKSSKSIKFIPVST
Sequence of Vasopressin 1 (VI) Receptor (Rattus norvegicus, UniProt P30560) (P30560 whole entry): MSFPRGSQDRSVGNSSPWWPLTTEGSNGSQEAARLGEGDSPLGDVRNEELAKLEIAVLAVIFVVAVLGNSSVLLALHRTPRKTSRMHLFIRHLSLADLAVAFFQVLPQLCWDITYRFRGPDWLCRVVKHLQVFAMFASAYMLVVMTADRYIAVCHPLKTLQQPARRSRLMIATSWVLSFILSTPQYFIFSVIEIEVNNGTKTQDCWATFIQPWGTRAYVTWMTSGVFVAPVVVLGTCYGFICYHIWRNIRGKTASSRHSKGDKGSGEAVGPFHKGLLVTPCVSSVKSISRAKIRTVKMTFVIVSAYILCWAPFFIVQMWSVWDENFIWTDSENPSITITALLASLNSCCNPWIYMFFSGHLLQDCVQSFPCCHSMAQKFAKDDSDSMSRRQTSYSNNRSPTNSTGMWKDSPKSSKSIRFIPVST
T1 sequence (P30518 whole entry): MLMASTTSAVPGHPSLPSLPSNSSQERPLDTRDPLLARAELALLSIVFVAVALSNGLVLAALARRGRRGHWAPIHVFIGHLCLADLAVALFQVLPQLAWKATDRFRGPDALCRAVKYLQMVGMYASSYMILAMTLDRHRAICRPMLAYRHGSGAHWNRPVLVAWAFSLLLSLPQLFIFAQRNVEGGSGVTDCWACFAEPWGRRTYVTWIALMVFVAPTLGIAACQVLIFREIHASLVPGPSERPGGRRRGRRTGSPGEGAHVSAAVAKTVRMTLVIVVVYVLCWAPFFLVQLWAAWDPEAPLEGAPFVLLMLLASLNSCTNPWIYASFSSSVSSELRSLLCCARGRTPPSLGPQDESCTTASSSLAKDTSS

By IC50 is commonly meant the concentration needed to halve the response being measured. High values mean weaker potency in that assay, low ones greater potency in that assay. As to `COc1cc(C(=O)N2CCCCc3ccccc32)ccc1C(=O)Nc1cccc2[nH]c(C)nc12` [Example 2, 2-methoxy-N-(2-methyl-1H-benzimidazol-4-yl)-4-(2,3,4,5-tetrahydro-1H-1-benzazepin-1-yl)-carbonylbenzamide], the IC50 in assay [1] was determined as 241 nM; in assay [2], 2.1 nM; in assay [3], 0.41 nM.
The like results for `COc1cc(C(=O)N2CCCCc3ccccc32)ccc1C(=O)Nc1cccc2[nH]cnc12` [Example 50, N-(1H-Benzimidazol-4-yl)-2-methoxy-4-(2,3,4,5-tetrahydro-1H-1-benzazepin-1-yl)carbonylbenzamide hydrochloride] were, in that order, 69 nM, 1.8 nM and 0.55 nM.
With `CCc1nc2c(NC(=O)c3ccc(C(=O)N4CCCCc5ccccc54)cc3OC)cccc2[nH]1` [Example 55, N-(2-Ethyl-1H-benzimidazol-4-yl)-2-methoxy-4-(2,3,4,5-tetrahydro-1H-1-benzazepin-1-yl)carbonylbenzamide hydrochloride], the IC50 in assay [1] came to 104 nM; in assay [2], 1.7 nM; in assay [3], 0.7 nM.
For the compound `COc1cc(C(=O)N2CCCCc3ccccc32)ccc1C(=O)Nc1cccc2[nH]c(C(=O)N(C)C)nc12` [Example 73, N-[2-(N,N-Dimethylcarbamoyl)-1H-benzimidazol-4-yl]-2-methoxy-4-(2,3,4,5-tetrahydro-1H-1-benzazepin-1-yl)carbonylbenzamide], the IC50 in assay [1] was 159 nM; in assay [2], 2.2 nM; in assay [3], 0.5 nM.
For `COc1cc(C(=O)N2CCCCc3ccccc32)ccc1C(=O)Nc1cccc2[nH]c(N(C)CCN)nc12` [Example 76, N-[2-[N-(2-Aminoethyl)-N-methylamino]-1H-benzimidazol-4-yl]-2-methoxy-4-(2,3,4,5-tetrahydro-1H-1-benzazepin-1-yl)carbonylbenzamide dihydrochloride], the IC50 in assay [1] turned out to be 140 nM; in assay [2], 0.2 nM; in assay [3] it was 0.08 nM.
